Data: patent publication EP3046573B1, “AMYLIN ANALOGUES” (Zealand Pharma A/S, priority 2013, dated 2015)
Like-named read-outs stand apart in the source and are kept apart here. Numbered stars: 1 amine (or outer) side, 2 acyl side, 3 side chain; on linkers, the order of the positions; unused ones are H or OH. Bridge positions count the residues as written; N and C are the ends. Square brackets hold non-standard residues; d marks the D form. Peptide text beside a SMILES is read from it. * marks the point of attachment. C20 diacid = O=C(O)CCCCCCCCCCCCCCCCCCC(=O)*; γGlu = O=C(O)[C@H](CCC(=O)[*:2])N[*:1]; Stearoyl = CCCCCCCCCCCCCCCCCC(=O)*; NMeI = CC[C@H](C)[C@H](NC)C(=O)O; Sar = CNCC(=O)O

What was measured:
[1] = biological target: T1, human calcitonin receptor (hCTR2) (Homo sapiens, UniProt P30988); experiment: hCTR2 assay: induction of cAMP (AlphaScreen cAMP Assay kit) in COS7 cells expressing hCTR2; type: cell-based
T1 construct: expressed in transfected cells
T1 sequence (P30988 25-474): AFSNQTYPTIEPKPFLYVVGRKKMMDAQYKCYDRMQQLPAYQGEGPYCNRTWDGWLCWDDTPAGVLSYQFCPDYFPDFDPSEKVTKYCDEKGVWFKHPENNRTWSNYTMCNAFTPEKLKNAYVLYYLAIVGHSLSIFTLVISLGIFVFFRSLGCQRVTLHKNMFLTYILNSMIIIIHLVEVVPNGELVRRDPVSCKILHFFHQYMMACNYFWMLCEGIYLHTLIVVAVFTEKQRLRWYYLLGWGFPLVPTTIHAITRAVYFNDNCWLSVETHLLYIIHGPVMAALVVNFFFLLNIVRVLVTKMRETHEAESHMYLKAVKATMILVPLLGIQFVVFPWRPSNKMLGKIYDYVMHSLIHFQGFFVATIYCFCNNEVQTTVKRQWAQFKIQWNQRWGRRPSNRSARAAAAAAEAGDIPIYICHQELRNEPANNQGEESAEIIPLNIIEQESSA
Summary of the method: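 Stable RAMP-naive COS7 clone expressing hCTR2 was stimulated with increasing peptide concentrations in Tyrode buffer (pH 7.4) with 100 µM IBMX and 0.1% casein for 15 min at 37° C. Cells were lysed and cAMP measured by AlphaScreen. EC50 and efficacy relative to pramlintide came from 4PL curve fits.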

[2] = Solubility assessment (turbidity absorbance at 325 nm); type: physicochemical; conditions: stock 2 mg/ml diluted 1:1, ambient temperature (typically 25°C), n=1; for Solubility, Acetate buffer pH 4: 100 mM acetate buffer pH 4.0; for Solubility, Acetate buffer pH 5: 100 mM acetate buffer pH 5.0; for Solubility, Histidine buffer pH 6: 100 mM histidine buffer pH 6.0; for Solubility, Histidine buffer pH 7: 100 mM histidine buffer pH 7.0; for Solubility, Phosphate buffer pH 6: 100 mM phosphate buffer pH 6.0; for Solubility, Phosphate buffer pH 7: 100 mM phosphate buffer pH 7.0; for Solubility, Phosphate buffer pH 7.5: 100 mM phosphate buffer pH7.5
Summary of the method: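 Peptide stock (2 mg/ml) in water acidified to pH 2.5 with HCl was diluted 1:1 into 100 mM acetate (pH 4.0, 5.0), histidine (pH 6.0, 7.0) or phosphate (pH 6.0, 7.0, 7.5) buffer. A280 and A325 were read at about 25°C, n=1. A325 ≤ 0.02 meant solubility ≥ 1 mg/ml.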

Row | EC50 ([1]; cAMP induction in COS7 cells expressing hCTR2, average of a minimum of 3 determinations, read-out: hCTR2 EC50) [nM] | SMILES | EC50 [1] [nM] | Solubility, Acetate buffer pH 4 [2] | Solubility, Acetate buffer pH 5 [2] | Solubility, Histidine buffer pH 6 [2] | Solubility, Histidine buffer pH 7 [2] | Solubility, Phosphate buffer pH 6 [2] | Solubility, Phosphate buffer pH 7 [2] | Solubility, Phosphate buffer pH 7.5 [2]
1 |  | CCCCCCCCCCCCCCCCCC(=O)N[C@@H](CCC(=O)N[C@@H](CCCNC(=N)N)C(=O)N[C@H]1CSSC[C@@H](C(=O)N[C@@H](C)C(=O)N[C@H](C(=O)N[C@@H](CCC(N)=O)C(=O)N[C@@H](CCCNC(=N)N)C(=O)N[C@@H](CC(C)C)C(=O)N[C@@H](C)C(=O)N[C@@H](CCC(=O)O)C(=O)N[C@@H](Cc2ccccc2)C(=O)N[C@@H](CC(C)C)C(=O)N[C@@H](Cc2c[nH]cn2)C(=O)N[C@@H](CCCNC(=N)N)C(=O)N[C@@H](CO)C(=O)N[C@@H](CO)C(=O)N[C@@H](CC(N)=O)C(=O)N[C@@H](CC(N)=O)C(=O)N[C@@H](Cc2ccccc2)C(=O)N(C)CC(=O)N[C@@H](C)C(=O)N(C)[C@H](C(=O)N[C@@H](CC(C)C)C(=O)N[C@@H](CO)C(=O)N[C@@H](CO)C(=O)N[C@H](C(=O)N[C@@H](CC(N)=O)C(=O)N[C@H](C(=O)NCC(=O)N[C@@H](CO)C(=O)N[C@@H](CC(N)=O)C(=O)N[C@H](C(=O)N2CCC[C@H]2C(N)=O)[C@@H](C)O)C(C)C)[C@@H](C)O)[C@@H](C)CC)[C@@H](C)O)NC(=O)[C@H]([C@@H](C)O)NC(=O)[C@H](C)NC(=O)[C@H]([C@@H](C)O)NC(=O)[C@H](CC(N)=O)NC1=O)C(=O)O [Compound 93, [Octadecanoyl]-isoGlu-RC()NTATC()ATQRLAEFLHRSSNNF-Gly(Me)-A-Ile(Me)-LSSTNVGSNTP-NH2] ({Stearoyl-γGlu}-RCNTATCATQRLAEFLHRSSNNF[Sar]A[NMeI]LSSTNVGSNTP-NH2; disulfide 2-7) | 0.064 | SS (SS indicates solubility ≥ 1mg/ml) | SS (SS indicates solubility ≥ 1mg/ml) | SS (SS indicates solubility ≥ 1mg/ml) | SS (SS indicates solubility ≥ 1mg/ml) | SS (SS indicates solubility ≥ 1mg/ml) | SS (SS indicates solubility ≥ 1mg/ml) | SS (SS indicates solubility ≥ 1mg/ml)
2 | 0.082 | CC[C@H](C)[C@@H](C(=O)N[C@@H](CC(C)C)C(=O)N[C@@H](CO)C(=O)N[C@@H](CO)C(=O)N[C@H](C(=O)N[C@@H](CCC(=O)O)C(=O)N[C@H](C(=O)NCC(=O)N[C@@H](CO)C(=O)N[C@@H](CCC(=O)O)C(=O)N[C@H](C(=O)N1CCC[C@H]1C(N)=O)[C@@H](C)O)C(C)C)[C@@H](C)O)N(C)C(=O)CN(C)C(=O)[C@H](Cc1ccccc1)NC(=O)[C@H](CO)NC(=O)[C@H](CO)NC(=O)[C@H](CCCNC(=N)N)NC(=O)[C@H](Cc1c[nH]cn1)NC(=O)[C@H](CC(C)C)NC(=O)[C@H](Cc1ccccc1)NC(=O)[C@H](CCC(=O)O)NC(=O)[C@H](C)NC(=O)[C@H](CC(C)C)NC(=O)[C@H](CCCNC(=N)N)NC(=O)[C@H](CCC(N)=O)NC(=O)[C@@H](NC(=O)[C@H](C)NC(=O)[C@@H]1CSSC[C@H](NC(=O)[C@H](CCCNC(=N)N)NC(=O)CC[C@H](NC(=O)CCCCCCCCCCCCCCCCCCC(=O)O)C(=O)O)C(=O)N[C@@H](CC(N)=O)C(=O)N[C@@H]([C@@H](C)O)C(=O)N[C@@H](C)C(=O)N[C@@H]([C@@H](C)O)C(=O)N1)[C@@H](C)O [Compound 95, [19CD]-isoGlu-RC()NTATC()ATQRLAEFLHRSSF-Gly(Me)-Ile(Me)-LSSTEVGSETP-NH2] ({C20 diacid-γGlu}-RCNTATCATQRLAEFLHRSSF[Sar][NMeI]LSSTEVGSETP-NH2; disulfide 2-7) |  | SS (SS indicates solubility ≥ 1mg/ml) | SS (SS indicates solubility ≥ 1mg/ml) | SS (SS indicates solubility ≥ 1mg/ml) | SS (SS indicates solubility ≥ 1mg/ml) | SS (SS indicates solubility ≥ 1mg/ml) | SS (SS indicates solubility ≥ 1mg/ml) | SS (SS indicates solubility ≥ 1mg/ml)
3 |  | CC[C@H](C)[C@@H](C(=O)N[C@@H](CC(C)C)C(=O)N[C@@H](CO)C(=O)N[C@@H](CO)C(=O)N[C@H](C(=O)N[C@@H](CC(N)=O)C(=O)N[C@H](C(=O)NCC(=O)N[C@@H](CO)C(=O)N[C@@H](CC(N)=O)C(=O)N[C@H](C(=O)N[C@@H](Cc1ccc(O)cc1)C(N)=O)[C@@H](C)O)C(C)C)[C@@H](C)O)N(C)C(=O)[C@H](C)NC(=O)CN(C)C(=O)[C@H](Cc1ccccc1)NC(=O)[C@H](CC(N)=O)NC(=O)[C@H](CC(N)=O)NC(=O)[C@H](CO)NC(=O)[C@H](CO)NC(=O)[C@H](CCCNC(=N)N)NC(=O)[C@H](Cc1c[nH]cn1)NC(=O)[C@H](CC(C)C)NC(=O)[C@H](Cc1ccccc1)NC(=O)[C@H](CCC(=O)O)NC(=O)[C@H](C)NC(=O)[C@H](CC(C)C)NC(=O)[C@H](CCCNC(=N)N)NC(=O)[C@H](CCC(N)=O)NC(=O)[C@@H](NC(=O)[C@H](C)NC(=O)[C@@H]1CSSC[C@H](NC(=O)[C@H](CCCNC(=N)N)NC(=O)CC[C@H](NC(=O)CCCCCCCCCCCCCCCCCCC(=O)O)C(=O)O)C(=O)N[C@@H](CC(N)=O)C(=O)N[C@@H]([C@@H](C)O)C(=O)N[C@@H](C)C(=O)N[C@@H]([C@@H](C)O)C(=O)N1)[C@@H](C)O [Compound 156, [19CD]-isoGlu-RC()NTATC()ATQRLAEFLHRSSNNF-Gly(Me)-A-Ile(Me)-LSSTNVGSNTY-NH2] ({C20 diacid-γGlu}-RCNTATCATQRLAEFLHRSSNNF[Sar]A[NMeI]LSSTNVGSNTY-NH2; disulfide 2-7) | 0.54 | SS (SS indicates solubility ≥ 1mg/ml) | SS (SS indicates solubility ≥ 1mg/ml) | SS (SS indicates solubility ≥ 1mg/ml) | II (II indicates solubility ≤ 1 mg/ml) | SS (SS indicates solubility ≥ 1mg/ml) | II (II indicates solubility ≤ 1 mg/ml) | II (II indicates solubility ≤ 1 mg/ml)
